Measured values: ChEMBL document CHEMBL1208787 (Bioorg Med Chem Lett, 2010)

Key:
Rattus norvegicus [1] = experiment: Antiinflammatory activity in rat assessed as inhibition of carrageenan-induced paw edema administered orally at dose equivalent to 70 mg/kg ibuprofen after 4 hrs; format: functional; conditions: route oral
Mus musculus = experiment: Analgesic activity in po dosed mouse assessed as decrease in tail flick tendency after 4 hrs by tail flick test; format: functional
Rattus norvegicus [2] = experiment: Gastrointestinal toxicity in rat assessed as ulcerogenic index administered orally at dose equivalent to 210 mg/kg ibuprofen; format: organism-based; set-up: dose 210 mg/kg, route oral; conditions: in vivo, po
[3] = test system: Stomach (Rattus norvegicus); experiment: Gastrointestinal toxicity in rat gastric mucosa assessed as ulcerogenic activity-related malonaldehyde level per 100 mg of tissue administered orally at dose equivalent to 210 mg/kg ibuprofen (RVb = 3.26 nmol); conditions: in vivo, po
Rattus norvegicus [4] = experiment: Antiinflammatory activity in rat assessed as inhibition of carrageenan-induced paw edema at 70 mg/kg, po after 4 hrs; format: functional
Rattus norvegicus [5] = experiment: Gastrointestinal toxicity in rat assessed as ulcerogenic index at 210 mg/kg, po; format: organism-based; set-up: dose 210 mg/kg, route oral; conditions: in vivo
Liver [6] = experiment: Gastrointestinal toxicity in rat liver assessed as ulcerogenic activity-related malonaldehyde level per 100 mg of tissue at 210 mg/kg, po (RVb = 3.26 nmol); format: organism-based; set-up: dose 210 mg/kg, route oral; conditions: in vivo
Rattus norvegicus [7] = experiment: Hepatotoxicity in po dosed rat assessed as effect on serum SGOT level (reference value: 143.71 +/- 1.1 U/mL); format: toxicity, organism-based; conditions: in vivo
Rattus norvegicus [8] = experiment: Hepatotoxicity in po dosed rat assessed as effect on serum SGPT level (reference value: 32.46 +/- 0.76 U/mL); format: toxicity, organism-based; conditions: in vivo
Rattus norvegicus [9] = experiment: Hepatotoxicity in po dosed rat assessed as effect on serum alkaline phosphatase level (reference value: 12.17 +/- 0.16 U/mL); format: toxicity, organism-based; conditions: in vivo
Rattus norvegicus [10] = experiment: Hepatotoxicity in po dosed rat assessed as effect on total serum protein level (reference value: 1.72+/- 0.02 g/dl); format: toxicity, organism-based; conditions: in vivo
Rattus norvegicus [11] = experiment: Hepatotoxicity in po dosed rat assessed as effect on total albumin level (reference value: 1.63 +/- 0.02 g/dl); format: toxicity, organism-based; conditions: in vivo
Liver [12] = experiment: Hepatotoxicity in po dosed rat liver assessed as effect on hepatocyte morphological changes by histopathological analysis; format: toxicity, organism-based; conditions: hepatocytes

Row | Compound | inhibition in vivo (Rattus norvegicus [1]) [%] | inhibition (INH) (Mus musculus) [%] | UI (Rattus norvegicus [2]) | Activity [3] [nmol] | inhibition in vivo at 70 mg/kg (Rattus norvegicus [4]) [%] | UI (Rattus norvegicus [5]) | Activity (Liver [6]) [nmol] | Activity (Rattus norvegicus [7]) [U/ml] | Activity (Rattus norvegicus [8]) [U/ml] | Activity (Rattus norvegicus [9]) [U/ml] | Activity (Rattus norvegicus [10]) [g/dL] | Activity (Rattus norvegicus [11]) [g/dL] | Activity (Liver [12])
1 | CC(=O)Oc1ccccc1-c1nnc(-c2ccncc2)o1 | 63.4 | 57.57 | 0.831 | 5.19 |  |  |  |  |  |  |  |  | 
2 | c1ccc(Oc2nn3c(-c4ccncc4)nnc3s2)cc1 | 63.5 | 52.27 | 1.5 | 7.32 |  |  |  |  |  |  |  |  | 
3 | c1ccc(-c2nn3c(-c4ccncc4)nnc3s2)cc1 | 66.4 | 56.06 | 0.666 | 5.78 |  |  |  |  |  |  |  |  | 
4 | CC(=O)Oc1ccccc1-c1nn2c(-c3ccncc3)nnc2s1 | 39.8 | 25 | 2.25 | 8.82 |  |  |  |  |  |  |  |  | 
5 | Cc1ccccc1-c1nn2c(-c3ccncc3)nnc2s1 | 79.8 | 62.54 | 0.471 | 4.16 |  |  |  |  |  |  |  |  | 
6 | Clc1ccccc1-c1nn2c(-c3ccncc3)nnc2s1 | 45.4 | 37.27 | 1.417 | 8.8 |  |  |  |  |  |  |  |  | 
7 | c1ccc(-c2nnc(-c3ccncc3)o2)cc1 | 82.6 | 68.21 | 1.667 |  |  |  |  |  |  |  |  |  | 
8 | O=[N+]([O-])c1ccc(-c2nnc(-c3ccncc3)o2)cc1 | 54 | 44.05 | 1.762 | 6.85 |  |  |  |  |  |  |  |  | 
9 | c1ccc(Oc2nnc(-c3ccncc3)o2)cc1 | 71.2 | 62.14 | 0.731 | 3.33 |  |  |  |  |  |  |  |  | 
10 | CC(C)Cc1ccc(C(C)C(=O)O)cc1 (stereo not drawn) [IBUPROFEN] |  | 73.52 |  |  | 82.7 | 2.315 | 7.51 | 140.14 | 34.26 | 11.67 | 1.74 | 1.71 | 
11 | Sc1nnc(-c2ccncc2)o1 | 62.9 | 54.28 | 1.327 | 5.78 |  |  |  |  |  |  |  |  | 
12 | NNC(=O)c1ccncc1 [ISONIAZID] | 51.6 | 45.9 | 3.75 |  |  |  |  | 151.25 | 40.21 | 8.31 | 1.55 | 1.48 | 
13 | Clc1ccccc1-c1nnc(-c2ccncc2)o1 | 37.7 | 29.54 | 2 | 8.11 |  |  |  |  |  |  |  |  | 
14 | Cc1ccccc1-c1nnc(-c2ccncc2)o1 | 43.4 | 31.81 | 2.266 | 7.33 |  |  |  |  |  |  |  |  | 
15 | Clc1ccc(-c2nn3c(-c4ccncc4)nnc3s2)c(Cl)c1 | 69.3 | 61.81 | 0.75 | 6.71 |  |  |  |  |  |  |  |  | 
16 | O=[N+]([O-])c1ccc(-c2nn3c(-c4ccncc4)nnc3s2)cc1 | 86.3 | 74.32 | 0.324 | 3.47 |  |  |  | 138.32 | 29.34 | 12.76 | 1.78 | 1.77 | Non-toxic
17 | Clc1ccc(-c2nnc(-c3ccncc3)o2)c(Cl)c1 | 84 | 70.37 | 0.386 | 3.29 |  |  |  | 136.24 | 28.67 | 13.79 | 1.76 | 1.72 | Non-toxic
